Data published in the NIST ThermoML archive (doi:10.1016/j.jct.2013.07.003).

Key:
[1] = 298.2 K; 101.33 kPa; Liquid; Vibrating tube method
[2] = refractive index (Na D-line) (dimensionless); details: 101.33 kPa, Liquid, Standard Abbe refractometry
[3] = relative permittivity at various frequencies (dimensionless); details: 101 kPa, Liquid, Frequency=0.1 MHz, Coaxial cylinder capacitor
[4] = refractive index (Na D-line) (dimensionless); xn = mol fraction of the nth substance listed; details: 101 kPa, Liquid, Standard Abbe refractometry, x2 = 0
[5] = relative permittivity at various frequencies (dimensionless); xn = mol fraction of the nth substance listed; details: 101 kPa, Liquid, Frequency=0.1 MHz, Coaxial cylinder capacitor, x2 = 0

CC(O)CCO (stereo not drawn) [1,3-butanediol]
Details | mass density [kg/m3]
[1] | 1001.2

Details | refractive index, 298.2 K | refractive index, 303.2 K | refractive index, 308.2 K | refractive index, 313.2 K | refractive index, 318.2 K | relative permittivity, 298.2 K | relative permittivity, 303.2 K | relative permittivity, 308.2 K | relative permittivity, 313.2 K | relative permittivity, 318.2 K
[2] | 1.4384 | 1.4371 | 1.4356 | 1.4341 | 1.4328 | – | – | – | – | –
[3] | – | – | – | – | – | 28.52 | 27.66 | 26.77 | 25.98 | 25.22

CCCCCCCCO [octan-1-ol]
Details | mass density [kg/m3]
[1] | 821.69

Details | refractive index, 298.2 K | refractive index, 303.2 K | refractive index, 308.2 K | refractive index, 313.2 K | refractive index, 318.2 K | relative permittivity, 298.2 K | relative permittivity, 303.2 K | relative permittivity, 308.2 K | relative permittivity, 313.2 K | relative permittivity, 318.2 K
[2] | 1.4276 | 1.4254 | 1.423 | 1.4205 | 1.4184 | – | – | – | – | –
[3] | – | – | – | – | – | 9.81 | 9.38 | 8.94 | 8.52 | 8.11

CCCCCCCCO [octan-1-ol] + CC(O)CCO
Details | refractive index, 298.2 K | refractive index, 303.2 K | refractive index, 308.2 K | refractive index, 313.2 K | refractive index, 318.2 K | relative permittivity, 298.2 K | relative permittivity, 303.2 K | relative permittivity, 308.2 K | relative permittivity, 313.2 K | relative permittivity, 318.2 K
[4] | 1.4276 | 1.4254 | 1.423 | 1.4205 | 1.4184 | – | – | – | – | –
[5] | – | – | – | – | – | 9.81 | 9.38 | 8.94 | 8.52 | 8.11

C1COCCO1 [1,4-dioxane]
Details | mass density [kg/m3]
[1] | 1027.89

Details | refractive index, 298.2 K | refractive index, 303.2 K | refractive index, 308.2 K | refractive index, 313.2 K | refractive index, 318.2 K | relative permittivity, 298.2 K | relative permittivity, 303.2 K | relative permittivity, 308.2 K | relative permittivity, 313.2 K | relative permittivity, 318.2 K
[2] | 1.4201 | 1.4174 | 1.4145 | 1.4118 | 1.4088 | – | – | – | – | –
[3] | – | – | – | – | – | 2.23 | 2.22 | 2.21 | 2.2 | 2.19

C1COCCO1 [1,4-dioxane] + CC(O)CCO
Details | refractive index, 298.2 K | refractive index, 303.2 K | refractive index, 308.2 K | refractive index, 313.2 K | refractive index, 318.2 K | relative permittivity, 298.2 K | relative permittivity, 303.2 K | relative permittivity, 308.2 K | relative permittivity, 313.2 K | relative permittivity, 318.2 K
[4] | 1.4201 | 1.4174 | 1.4145 | 1.4118 | 1.4088 | – | – | – | – | –
[5] | – | – | – | – | – | 2.23 | 2.22 | 2.21 | 2.2 | 2.19
